Results reported in the supplement of paper PMC11061612.

Legend:
Paclitaxel = compound: CC(=O)O[C@H]1C(=O)[C@@]2(C)[C@H]([C@H](OC(=O)c3ccccc3)[C@]3(O)C[C@H](OC(=O)[C@H](O)[C@@H](NC(=O)c4ccccc4)c4ccccc4)C(C)=C1C3(C)C)[C@]1(OC(C)=O)CO[C@@H]1C[C@@H]2O [Paclitaxel]; settings: max 3 µM
Method in brief: (§1)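 Viability was measured with CellTiter-Glo 2.0 luminescence after 72 hours of dosing at a final DMSO of typically 0.2%, and scaled between blank-well and DMSO-well means. Beforehand, cancer cell lines sat 24 hours at 37°C and 5% CO2 in 1536-well plates in 7.5 μl DMEM/F12 or RPMI with 10% FBS. A non-linear mixed effects model fitted two-parameter logistic curves to the dose responses. The single-agent IC50 comes from these fits.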

SRA737 = compound: N#Cc1cnc(Nc2cc(NC[C@H]3CNCCO3)c(C(F)(F)F)cn2)cn1 [SRA737]; settings: max 10 µM
Method in brief: as §1

Gemcitabine = compound: Nc1ccn([C@@H]2O[C@H](CO)[C@@H](O)C2(F)F)c(=O)n1 [Gemcitabine]; settings: max 0.3 µM
Method in brief: as §1

Lapatinib = compound: CS(=O)(=O)CCNCc1ccc(-c2ccc3ncnc(Nc4ccc(OCc5cccc(F)c5)c(Cl)c4)c3c2)o1 [Lapatinib]; settings: max 10 µM
Method in brief: as §1

SN-38 = compound: CCc1c2c(nc3ccc(O)cc13)-c1cc3c(c(=O)n1C2)COC(=O)[C@]3(O)CC [SN-38]; settings: max 0.3 µM
Method in brief: as §1

Etoposide = compound: COc1cc([C@@H]2c3cc4c(cc3[C@@H](O[C@@H]3O[C@@H]5CO[C@@H](C)O[C@H]5[C@H](O)[C@H]3O)[C@H]3COC(=O)[C@H]23)OCO4)cc(OC)c1O [Etoposide]; settings: max 10 µM
Method in brief: as §1

AZD8186 = compound: C[C@@H](Nc1cc(F)cc(F)c1)c1cc(C(=O)N(C)C)cc2c(=O)cc(N3CCOCC3)oc12 [AZD8186]; settings: max 10 µM
Method in brief: as §1

Doxorubicin = compound: COc1cccc2c1C(=O)c1c(O)c3c(c(O)c1C2=O)C[C@@](O)(C(=O)CO)C[C@@H]3O[C@H]1C[C@H](N)[C@H](O)[C@H](C)O1 [Doxorubicin]; settings: max 1 µM
Method in brief: as §1

Alisertib = compound: COc1cc(Nc2ncc3c(n2)-c2ccc(Cl)cc2C(c2c(F)cccc2OC)=NC3)ccc1C(=O)O [Alisertib]; settings: max 10 µM
Method in brief: as §1

Venetoclax = compound: CC1(C)CCC(CN2CCN(c3ccc(C(=O)NS(=O)(=O)c4ccc(NCC5CCOCC5)c([N+](=O)[O-])c4)c(Oc4cnc5[nH]ccc5c4)c3)CC2)=C(c2ccc(Cl)cc2)C1 [Venetoclax]; settings: max 1 µM
Method in brief: as §1

Selumetinib = compound: Cn1cnc2c(F)c(Nc3ccc(Br)cc3Cl)c(C(=O)NOCCO)cc21 [Selumetinib]; settings: max 10 µM
Method in brief: as §1

AZD5363 = compound: C1CN(CCC1(C(=O)N[C@@H](CCO)C2=CC=C(C=C2)Cl)N)C3=NC=NC4=C3C=CN4 [AZD5363]; settings: max 10 µM
Method in brief: as §1

SG3199 = compound: CC1=CN2[C@@H](C1)C=NC3=CC(=C(C=C3C2=O)OC)OCCCCCOC4=C(C=C5C(=C4)N=C[C@@H]6CC(=CN6C5=O)C)OC [SG3199]; settings: max 0.001 µM
Method in brief: as §1

Olaparib = compound: O=C(c1cc(Cc2n[nH]c(=O)c3ccccc23)ccc1F)N1CCN(C(=O)C2CC2)CC1 [Olaparib]; settings: max 10 µM
Method in brief: as §1

Crizotinib = compound: C[C@@H](Oc1cc(-c2cnn(C3CCNCC3)c2)cnc1N)c1c(Cl)ccc(F)c1Cl [Crizotinib]; settings: max 10 µM
Method in brief: as §1

5-Fluorouracil = compound: O=c1[nH]cc(F)c(=O)[nH]1 [5-Fluorouracil]; settings: max 20 µM
Method in brief: as §1

Taselisib = compound: Cc1nc(-c2cn3c(n2)-c2ccc(-c4cnn(C(C)(C)C(N)=O)c4)cc2OCC3)n(C(C)C)n1 [Taselisib]; settings: max 10 µM
Method in brief: as §1

AZD5991 = compound: Cc1c2c(nn1C)CSCc1cc(n(C)n1)CSc1cc(c3ccccc3c1)OCCCc1c(C(=O)O)n(C)c3c-2c(Cl)ccc13 [AZD5991]; settings: max 1 µM
Method in brief: as §1

AZD1390 = compound: CC(C)n1c(=O)n(C)c2cnc3cc(F)c(-c4ccc(OCCCN5CCCCC5)nc4)cc3c21 [AZD1390]; settings: max 0.3 µM
Method in brief: as §1

AZD4320 = compound: CN(CC[C@H](CSC1=CC=CC=C1)NC2=C(C=C(C=C2)S(=O)(=O)NC(=O)C3=CC=C(C=C3)N4CCC(CC4)[C@H](C5=CC=CC=C5C6=CC=C(C=C6)Cl)O)S(=O)(=O)C(F)(F)F)CCO [AZD4320]; settings: max 1 µM
Method in brief: as §1

AZD6738 = compound: C[C@@H]1COCCN1C2=NC(=NC(=C2)C3(CC3)[S@](=N)(=O)C)C4=C5C=CNC5=NC=C4 [AZD6738]; settings: max 10 µM
Method in brief: as §1

MK-2206 = compound: NC1(c2ccc(-c3nc4ccn5c(=O)[nH]nc5c4cc3-c3ccccc3)cc2)CCC1 [MK-2206]; settings: max 10 µM
Method in brief: as §1

Prexasertib = compound: COc1cccc(OCCCN)c1-c1cc(Nc2cnc(C#N)cn2)n[nH]1 [Prexasertib]; settings: max 1 µM
Method in brief: as §1

AZD2811 = compound: CCN(CCO)CCCOc1ccc2c(Nc3cc(CC(=O)Nc4cccc(F)c4)[nH]n3)ncnc2c1 [AZD2811]; settings: max 1 µM
Method in brief: as §1

Dasatinib = compound: CC1=C(C(=CC=C1)Cl)NC(=O)C2=CN=C(S2)NC3=CC(=NC(=N3)C)N4CCN(CC4)CCO [Dasatinib]; settings: max 2 µM
Method in brief: as §1

AZD7648 = compound: Cc1cc2ncnn2cc1Nc1ncc2c(n1)n(C1CCOCC1)c(=O)n2C [AZD7648]; settings: max 10 µM
Method in brief: as §1

Palbociclib = compound: CC(=O)c1c(C)c2cnc(Nc3ccc(N4CCNCC4)cn3)nc2n(C2CCCC2)c1=O [Palbociclib]; settings: max 10 µM
Method in brief: as §1

Carboplatin = compound: C1CC(C1)(C(=O)[O-])C(=O)[O-].N.N.[Pt+2] [Carboplatin]; settings: max 10 µM
Method in brief: as §1

Trametinib = compound: CC(=O)Nc1cccc(-n2c(=O)n(C3CC3)c(=O)c3c(Nc4ccc(I)cc4F)n(C)c(=O)c(C)c32)c1 [Trametinib]; settings: max 1 µM
Method in brief: as §1

AZD5153 = compound: COc1nnc2ccc(N3CCC(c4ccc(OCCN5CCN(C)C(=O)[C@H]5C)cc4)CC3)nn12 [AZD5153]; settings: max 1 µM
Method in brief: as §1

Gefitinib = compound: COc1cc2ncnc(Nc3ccc(F)c(Cl)c3)c2cc1OCCCN1CCOCC1 [Gefitinib]; settings: max 10 µM
Method in brief: as §1

AZD1775 = compound: C=CCn1c(=O)c2cnc(Nc3ccc(N4CCN(C)CC4)cc3)nc2n1-c1cccc(C(C)(C)O)n1 [AZD1775]; settings: max 3 µM
Method in brief: as §1

[1] = compound: O=C(Nc1ccc2[nH]nc(-c3ccncc3)c2c1)[C@@H]1CCN(CC(=O)N2CCN(c3ccc(-c4ncccn4)cc3)CC2)C1; settings: max 5 µM
Method in brief: as §1

Savolitinib = compound: C[C@@H](c1ccc2nccn2c1)n1nnc2ncc(-c3cnn(C)c3)nc21 [Savolitinib]; settings: max 1 µM
Method in brief: as §1

AZD0156 = compound: CN(C)CCCOc1ccc(-c2ccc3ncc4c(c3c2)n(C2CCOCC2)c(=O)n4C)cn1 [AZD0156]; settings: max 3 µM
Method in brief: as §1

Cell Line | IC50, cell viability 72 h (Paclitaxel) [nM] | IC50, cell viability 72 h (SRA737) [nM] | IC50, cell viability 72 h (Gemcitabine) [nM] | IC50, cell viability 72 h (Lapatinib) [nM] | IC50, cell viability 72 h (SN-38) [nM] | IC50, cell viability 72 h (Etoposide) [nM] | IC50, cell viability 72 h (AZD8186) [nM] | IC50, cell viability 72 h (Doxorubicin) [nM] | IC50, cell viability 72 h (Alisertib) [nM] | IC50, cell viability 72 h (Venetoclax) [nM] | IC50, cell viability 72 h (Selumetinib) [nM] | IC50, cell viability 72 h (AZD5363) [nM] | IC50, cell viability 72 h (SG3199) [nM] | IC50, cell viability 72 h (Olaparib) [nM] | IC50, cell viability 72 h (Crizotinib) [nM] | IC50, cell viability 72 h (5-Fluorouracil) [nM] | IC50, cell viability 72 h (Taselisib) [nM] | IC50, cell viability 72 h (AZD5991) [nM] | IC50, cell viability 72 h (AZD1390) [nM] | IC50, cell viability 72 h (AZD4320) [nM] | IC50, cell viability 72 h (AZD6738) [nM] | IC50, cell viability 72 h (MK-2206) [nM] | IC50, cell viability 72 h (Prexasertib) [nM] | IC50, cell viability 72 h (AZD2811) [nM] | IC50, cell viability 72 h (Dasatinib) [nM] | IC50, cell viability 72 h (AZD7648) [nM] | IC50, cell viability 72 h (Palbociclib) [nM] | IC50, cell viability 72 h (Carboplatin) [nM] | IC50, cell viability 72 h (Trametinib) [nM] | IC50, cell viability 72 h (AZD5153) [nM] | IC50, cell viability 72 h (Gefitinib) [nM] | IC50, cell viability 72 h (AZD1775) [nM] | IC50, cell viability 72 h [1] [nM] | IC50, cell viability 72 h (Savolitinib) [nM] | IC50, cell viability 72 h (AZD0156) [nM]
D-263MG (Glioblastoma) | 76.1 | > 10000 | > 300 | > 10000 | 114 | > 10000 | > 10000 | 858 | 7080 | > 1000 | > 10000 | > 10000 | > 1 | > 10000 | > 10000 | > 20000 | > 10000 | > 1000 | > 300 | > 1000 | 7850 | > 10000 | 125 | > 1000 | > 2000 | > 10000 | > 10000 | > 10000 | > 1000 | > 1000 | > 10000 | 2490 | > 5000 | > 1000 | > 3000
EFM-19 (Breast Carcinoma) | 26.9 | > 10000 | > 300 | > 10000 | 288 | > 10000 | > 10000 | > 1000 | > 10000 | > 1000 | > 10000 | > 10000 | > 1 | > 10000 | > 10000 | > 20000 | 564 | > 1000 | > 300 | > 1000 | > 10000 | > 10000 | > 1000 | > 1000 | > 2000 | > 10000 | > 10000 | > 10000 | > 1000 | > 1000 | > 10000 | 2090 | > 5000 | > 1000 | > 3000
